Assay results taken from patent publication US6635664B1, “Insecticide compositions and method for destroying insects” (priority 1999, dated 2003).
Values joined by “and” are separate entries in the source; they are usually repeats but may differ in a detail not shown here. Equal entries are not always repeated.

Assays:
silverleaf whiteflies [1] = experiment: Test Example 1: spray test on cabbage seedlings infested with silverleaf whiteflies; type: in vivo; conditions: 50 ppm, total of adults and larvae on cabbage seedlings; for Number of surviving insects/pot after 8 days: 8 days after spray treatment; for Number of surviving insects/pot before: just before treatment
Method: (§1) Cabbage seedlings planted in 3 ounces plastic cup were placed in a net cage containing many living silverleaf whiteflies for 24 hours, so that many silverleaf whiteflies became parasitic on the cabbage seedlings. A designated amount of each of pyriproxyfen EC (commercial name, Lano emulsifiable concentrate : produced by Sumitomo Chemical Co., Ltd.), chlothianidine EC (emulsifiable concentrate prepared by mixing 10 parts of chlothianidine, 8 parts of polyoxyethylenealkyl aryl ether, 2 parts of sodium alkylarylsulfonate and 80 parts of xylene), and the present invention composition prepared according to formulation example 1 was diluted with water, and then sprayed over the cabbage seedlings with a spray gun. The number of silverleaf whiteflies (i.e., the total number of adults and larvae) surviving on the cabbage seedlings was examined just before and after 8 days from the treatment.

silverleaf whiteflies [2] = experiment: Test Example 2: spray test on cabbage seedlings infested with silverleaf whiteflies (10:1 and 1:10 mixtures); type: in vivo; conditions: 10 ppm; just before treatment; total of adults and larvae on cabbage seedlings
Method: as §1, with “pyriproxyfen EC.” for “pyriproxyfen EC”, “emulsifiable concentrate:” for “emulsifiable concentrate :”, “prepared by mixing the pyriproxyfen EC with chlothianidine EC at 10:1 and 1:10 by weight” for “prepared according to formulation example 1”

SMILES | Number of surviving insects/pot after 8 days (silverleaf whiteflies [1]) [insects/pot] | Number of surviving insects/pot before (silverleaf whiteflies [1]) [insects/pot] | Number of surviving insects/pot before (silverleaf whiteflies [2])
CN/C(=N\[N+](=O)[O-])NCc1cnc(Cl)s1 [chlothianidine, (E)-1-(2-chlorothiazol-5-ylmethyl)-3-methyl-2-nitroguanidine] | 70 | 66 | –
CC(COc1ccc(Oc2ccccc2)cc1)Oc1ccccn1 (centres unmarked) [pyriproxyfen, 4-phenoxyphenyl 2-(2-pyridyloxy)propyl ether] | 21 | 65 | 81 insects/pot and 62 insects/pot
